Laboratory results as given in patent publication US7081538B1, “Substituted isoxazolines and their use as antibacterial agents” (priority 1999, dated 2006).
In brackets after ≈: the same amount, converted by molar mass.

How the values were obtained:
Format in all cases: cell-based
[1] = system: Staphylococcus aureus Oxford; test: MIC by agar-dilution, Staphylococcus aureus Oxford; details: inoculum 10^4 CFU/spot, 37° C., 24 hours
Experimental: (§1) The following results were obtained on a standard in-vitro test system. The activity is described in terms of the minimum inhibitory concentration (MIC) determined by the agar-dilution technique with an inoculum size of 10^4 CFU/spot. Typically, compounds are active in the range 0.01 to 256 μg/ml.
(§2) Staphylococci were tested on agar, using an inoculum of 10^4 CFU/spot and an incubation temperature of 37° C. for 24 hours—standard test conditions for the expression of methicillin resistance.

[2] = system: Staphylococcus aureus Novb. Res (Novobiocin resistant); test: MIC by agar-dilution, Staphylococcus aureus Novb. Res; details: inoculum 10^4 CFU/spot, 37° C., 24 hours
Experimental: as §1, §2

[3] = system: Staphylococcus aureus MRQR (methicillin resistant quinolone resistant); test: MIC by agar-dilution, Staphylococcus aureus MRQR; details: inoculum 10^4 CFU/spot, 37° C., 24 hours
Experimental: as §1, §2

[4] = system: Coagulase Negative Staphylococci MS (methicillin sensitive); test: MIC by agar-dilution, Coagulase Negative Staphylococci MS; details: inoculum 10^4 CFU/spot, 37° C., 24 hours
Experimental: as §1, §2

[5] = system: Coagulase Negative Staphylococci MR (methicillin resistant); test: MIC by agar-dilution, Coagulase Negative Staphylococci MR; details: inoculum 10^4 CFU/spot, 37° C., 24 hours
Experimental: as §1, §2

[6] = system: Streptococcus pyogenes C203; test: MIC by agar-dilution, Streptococcus pyogenes C203; details: agar with 5% defibrinated horse blood, 10^4 CFU/spot, 37° C., 5% carbon dioxide, 48 hours
Experimental: as §1
(§3) Streptococci and enterococci were tested on agar supplemented with 5% defibrinated horse blood, an inoculum of 10^4 CFU/spot and an incubation temperature of 37° C. in an atmosphere of 5% carbon dioxide for 48 hours—blood is required for the growth of some of the test organisms.

Enterococcus faecalis = test: MIC by agar-dilution, Enterococcus faecalis; details: agar with 5% defibrinated horse blood, 10^4 CFU/spot, 37° C., 5% carbon dioxide, 48 hours
Experimental: as §1, §3

Bacillus subtilis = test: MIC by agar-dilution, Bacillus subtilis; details: inoculum 10^4 CFU/spot
Experimental: as §1

For O=C(CO)N1CC=C(c2ccc(C3=NOC(CNc4ccon4)C3)cc2)CC1 (racemic) [Example 1, (5RS)-3-(4-(1-Hydroxyacetyl-1,2,5,6-tetrahydropyrid-4-yl)phenyl)-5-(3-isoxazolylaminomethyl)-4,5-dihydro-isoxazole], the “MIC” value [1] was 2 µg/mL (≈ 5.23 µM), the “MIC” value [2] was 4 µg/mL (≈ 10.5 µM) and the “MIC” value [3] was 4 µg/mL (≈ 10.5 µM). For the same compound, the “MIC” value [4] was 1 µg/mL (≈ 2.61 µM), the “MIC” value [5] was 2 µg/mL (≈ 5.23 µM) and the “MIC” value [6] was 8 µg/mL (≈ 20.9 µM). For the same compound, the “MIC” value (Enterococcus faecalis) was 8 µg/mL (≈ 20.9 µM) and the “MIC” value (Bacillus subtilis) was 1 µg/mL (≈ 2.61 µM).
